Data reported in patent US12552738B2, “Crystal forms of amino lipids” (ModernaTX, Inc., priority 2017, dated 2026).
Entries after “also recorded” stand apart in the source; their conditions may differ.

How the values were obtained:
Format in all cases: physicochemical
[1] = Dynamic vapor sorption (DVS) isotherm, hygroscopicity; settings: for water uptake, adsorption isotherm / water uptake, desorption isotherm: 80% relative humidity, 25° C.; for Hygroscopicity/purity decrease: MC3 and MC3 trimesate, water uptake up to 80% RH at 25° C.; for Hygroscopicity / form change after DVS: salts or cocrystals of Compound 1; for Hygroscopicity: DVS isotherm at 25° C.; for form change after DVS: XRPD before and after DVS test at 25° C.
Experimental: DVS was measured on via a SMS (Surface Measurement Systems) DVS Intrinsic. The relative humidity at 25° C. were calibrated against deliquescence point of LiCl, Mg(NO3)2 and KCl.

[2] = free base pKa
[3] = HPLC purity before and after the DVS experiment; settings: samples prepared with crude and purified free base
Experimental: Trimesate Type A samples were prepared according to the procedure described in the foregoing, using the crude free base (HPLC purity of 88.5 area %) or purified free base (HPLC purity of 97.6 area %) as starting material, and analyzed by HPLC.

[4] = listed as 4-hydroxybenzoate Polymorph A
[5] = listed as trimellitate Polymorph A

## CCCCC/C=C\C/C=C\CCCCCCCCC(CCCCCCCC/C=C\C/C=C\CCCCC)OC(=O)CCCN(C)C [MC3, (6Z,9Z,28Z,31Z)-heptatriaconta-6,9,28,31-tetraen-19-yl 4-(dimethylamino)butanoate, reference compound]
[1]; listed as crude free base
  water uptake, adsorption isotherm: 0.24%
  water uptake, desorption isotherm: 0.27%
  Hygroscopicity/purity decrease: slightly hygroscopic
[1]; listed as pure free base
  water uptake, adsorption isotherm: 0.14%
  water uptake, desorption isotherm: 0.17%
[2]
  pKa: > 8

## (6Z,9Z,28Z,31Z)-heptatriaconta-6,9,28,31-tetraen-19-yl 4-(dimethylamino)butanoate trimesate [Trimesate Type A]
[1]
  Hygroscopicity/purity decrease: Non-hygroscopic
[1]; listed as trimesate Type A
  Hygroscopicity/purity decrease: non-hygroscopic (Hygroscopicity concluded using the water uptake up to 80% RH at 25° C.: < 0.2% for non-hygroscopic)
[1]; listed as trimesate of MC3
  Hygroscopicity/purity decrease: non-hygroscopic (Hygroscopicity concluded using the water uptake up to 80% RH at 25° C.: < 0.2% for non-hygroscopic)
[3]
  HPLC purity change after the DVS experiment: No significant HPLC purity change

## heptadecan-9-yl 8-((2-hydroxyethyl)amino)octanoate 4-hydroxybenzoate [4-Hydroxybenzoate Polymorph A]
[1]
  Hygroscopicity: Non-hygroscopic
  form change after DVS: (no)
[1]; [4]
  Hygroscopicity: non-hygroscopic
  form change after DVS: no form change
[1]; listed as 4-hydroxybenzoate of Compound 1
  Hygroscopicity: non-hygroscopic
[1]; listed as Polymorph A of 4-hydroxybenzoate of Compound 1
  Hygroscopicity: low hygroscopicity

## heptadecan-9-yl 8-((2-hydroxyethyl)amino)octanoate orotate [Orotate Polymorph B]
[1]
  Hygroscopicity: slightly hygroscopic; also recorded: Hygroscopic

## heptadecan-9-yl 8-((2-hydroxyethyl)amino)octanoate trimellitate [Trimellitate Polymorph A]
[1]
  Hygroscopicity: Slightly hygroscopic
  form change after DVS: (no)
[1]; [5]
  Hygroscopicity: slightly hygroscopic
  form change after DVS: no form change
